Measured values reported in PubChem BioAssay AID256 (DTP/NCI, 2004).
Where “and” joins values, the source holds several entries; their conditions need not be identical. Equal entries are not always repeated. Toxic doses and inconclusive results are not listed.

Tested on: CD2F1 mice, L1210 leukemia ip, survival T/C
Assay: NCI In Vivo Anticancer Drug Screen. Data for tumor model L1210 Leukemia (intraperitoneal) in CD2F1 (CDF1) mice
Conditions: higher = longer survival
Outline: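 Read-out first: treated-group measurement over vehicle-control measurement, expressed as a ratio. Animals bore a transplanted tumor line and were dosed with compound or vehicle.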

[1] = endpoint: mean survival time, dose: 100.0 mg/kg/injection, schedule: Q01DX009 (ip), vehicle: Klucel (hydroxypropylcellulose) (HPC)
[2] = endpoint: mean survival time, dose: 100.0 mg/kg/injection, schedule: Q01DX001 (ip), vehicle: saline with Tween-80
[3] = endpoint: mean survival time, dose: 100.0 mg/kg/injection, schedule: Q01DX009 (ip), vehicle: saline with Tween-80
[4] = endpoint: mean survival time, dose: 100.0 mg/kg/injection, schedule: Q04DX002 (ip), vehicle: saline with Tween-80
[5] = endpoint: mean survival time, dose: 100.0 mg/kg/injection, schedule: Q04DX003 (ip), vehicle: saline with Tween-80
[6] = endpoint: mean survival time, dose: 200.0 mg/kg/injection, schedule: Q01DX001 (ip), vehicle: saline with Tween-80
[7] = endpoint: mean survival time, dose: 200.0 mg/kg/injection, schedule: Q01DX009 (ip), vehicle: saline with Tween-80
[8] = endpoint: mean survival time, dose: 200.0 mg/kg/injection, schedule: Q04DX002 (ip), vehicle: saline with Tween-80
[9] = endpoint: mean survival time, dose: 200.0 mg/kg/injection, schedule: Q04DX003 (ip), vehicle: saline with Tween-80
[10] = endpoint: mean survival time, dose: 400.0 mg/kg/injection, schedule: Q01DX001 (ip), vehicle: saline with Tween-80
[11] = endpoint: mean survival time, dose: 400.0 mg/kg/injection, schedule: Q04DX003 (ip), vehicle: saline with Tween-80
[12] = endpoint: mean survival time, dose: 12.5 mg/kg/injection, schedule: Q01DX009 (ip), vehicle: saline with Tween-80
[13] = endpoint: mean survival time, dose: 25.0 mg/kg/injection, schedule: Q01DX009 (ip), vehicle: saline with Tween-80
[14] = endpoint: mean survival time, dose: 50.0 mg/kg/injection, schedule: Q01DX009 (ip), vehicle: saline with Tween-80
[15] = endpoint: mean survival time, dose: 25.0 mg/kg/injection, schedule: Q04DX002 (ip), vehicle: saline with Tween-80
[16] = endpoint: mean survival time, dose: 50.0 mg/kg/injection, schedule: Q04DX002 (ip), vehicle: saline with Tween-80

Compound: Brc1ccc(OCC(COc2ccc(Br)cc2)(COc2ccc(Br)cc2)COc2ccc(Br)cc2)cc1
- T/C (endpoint: mean survival time, dose: 100.0 mg/kg/injection, schedule: Q01DX001 (ip), vehicle: Klucel (hydroxypropylcellulose) (HPC)): 100 % of control
- T/C (endpoint: mean survival time, dose: 200.0 mg/kg/injection, schedule: Q01DX001 (ip), vehicle: Klucel (hydroxypropylcellulose) (HPC)): 103 % of control
- T/C (endpoint: mean survival time, dose: 400.0 mg/kg/injection, schedule: Q01DX001 (ip), vehicle: Klucel (hydroxypropylcellulose) (HPC)): 91 % of control

Compound: CN(C)N=Nc1ccc(/C=C/C(=O)O)cc1
- T/C (endpoint: mean survival time, dose: 12.5 mg/kg/injection, schedule: Q01DX009 (ip), vehicle: Klucel (hydroxypropylcellulose) (HPC)): 105 % of control
- T/C (endpoint: mean survival time, dose: 25.0 mg/kg/injection, schedule: Q01DX009 (ip), vehicle: Klucel (hydroxypropylcellulose) (HPC)): 111 % of control
- T/C [1]: 150 % of control

Compound: c1ccc(CN(c2ccccc2)C2CCCCC2)cc1
- T/C (endpoint: mean survival time, dose: 100.0 mg/kg/injection, schedule: Q04DX003 (ip), vehicle: Klucel (hydroxypropylcellulose) (HPC)): 91 % of control
- T/C (endpoint: mean survival time, dose: 200.0 mg/kg/injection, schedule: Q04DX003 (ip), vehicle: Klucel (hydroxypropylcellulose) (HPC)): 91 % of control

Compound: CC(C)(C)C1CCS(=O)(=O)CC1.[Cl][Hg][Cl]
- T/C (endpoint: mean survival time, dose: 0.25 mg/kg/injection, schedule: Q04DX003 (ip), vehicle: saline): 104 % of control
- T/C (endpoint: mean survival time, dose: 0.5 mg/kg/injection, schedule: Q04DX003 (ip), vehicle: saline): 94 % of control
- T/C (endpoint: mean survival time, dose: 1.0 mg/kg/injection, schedule: Q04DX003 (ip), vehicle: saline): 100 % of control

Compound: O=C(Nc1ccc(Nc2ccccc2)cc1)Nc1cc([N+](=O)[O-])ccc1Cl
- T/C (endpoint: mean survival time, dose: 50.0 mg/kg/injection, schedule: Q01DX001 (ip), vehicle: saline with Tween-80): 92 % of control
- T/C [2]: 86 % of control and 90 % of control
- T/C [3]: 91 % of control and 98 % of control
- T/C [4]: 93 % of control and 100 % of control
- T/C [5]: 87 % of control
- T/C [6]: 90 % of control
- T/C [7]: 100 % of control and 109 % of control
- T/C [8]: 91 % of control and 92 % of control
- T/C [9]: 95 % of control
- T/C [10]: 91 % of control
- T/C (endpoint: mean survival time, dose: 400.0 mg/kg/injection, schedule: Q01DX009 (ip), vehicle: saline with Tween-80): 103 % of control and 111 % of control
- T/C (endpoint: mean survival time, dose: 400.0 mg/kg/injection, schedule: Q04DX002 (ip), vehicle: saline with Tween-80): 92 % of control and 98 % of control
- T/C [11]: 98 % of control

Compound: O=C1c2ccccc2C(C2c3ccccc3C(=O)c3ccccc32)c2ccccc21
- T/C [5]: 110 % of control
- T/C [9]: 96 % of control
- T/C [11]: 100 % of control

Compound: CCCCC(CCCC)c1ccccn1
- T/C (endpoint: mean survival time, dose: 6.25 mg/kg/injection, schedule: Q01DX009 (ip), vehicle: saline with Tween-80): 91 % of control
- T/C [12]: 96 % of control
- T/C [13]: 96 % of control

Compound: O=C1NC(=O)C(=C/C=C/c2ccccc2)C(=O)N1
- T/C [12]: 97 % of control
- T/C [13]: 94 % of control
- T/C [14]: 91 % of control and 103 % of control

Compound: COC(=O)C1(C)CCCC2(C)C1CCC1(O)C(O)C(C(C)C)=CCC21 (stereo not drawn)
- T/C [5]: 92 % of control
- T/C [9]: 93 % of control
- T/C [11]: 92 % of control

Compound: CC1CCCCC1NC(=O)c1ccccc1 (stereo not drawn)
- T/C [2]: 100 % of control
- T/C [6]: 98 % of control
- T/C [10]: 87 % of control

Compound: Cc1ccc(-c2[nH]c(=S)[nH]c(=O)c2CCO)cc1
- T/C [5]: 91 % of control
- T/C [9]: 97 % of control
- T/C [11]: 93 % of control

Compound: CSc1ncnc2c1C[P+](Cc1ccccc1)(c1ccccc1)CC2 (stereo not drawn)
- T/C [15]: 101 % of control
- T/C [16]: 101 % of control
- T/C [4]: 101 % of control

Compound: O=C1Cc2c([nH]c(=S)[nH]c2=O)N1
- T/C (endpoint: median survival time, dose: 50.0 mg/kg/injection, schedule: Q01DX005 (ip), vehicle: saline): 94 % of control
- T/C (endpoint: median survival time, dose: 100.0 mg/kg/injection, schedule: Q01DX005 (ip), vehicle: saline): 102 % of control
- T/C (endpoint: median survival time, dose: 200.0 mg/kg/injection, schedule: Q01DX005 (ip), vehicle: saline): 101 % of control

Compound: O=S1(=O)C[CH-]C1.[C-]#[O+].[C-]#[O+].[C-]#[O+].[W].[c-]1[c-][c-][cH-][c-]1
- T/C [16]: 93 % of control
- T/C [4]: 101 % of control
- T/C [8]: 89 % of control

Compound: Cc1ccc(S(=O)(=O)N(CC(=O)O)c2cccc(Cl)c2)cc1
- T/C [1]: 101 % of control
- T/C (endpoint: mean survival time, dose: 200.0 mg/kg/injection, schedule: Q01DX009 (ip), vehicle: Klucel (hydroxypropylcellulose) (HPC)): 98 % of control
- T/C (endpoint: mean survival time, dose: 400.0 mg/kg/injection, schedule: Q01DX009 (ip), vehicle: Klucel (hydroxypropylcellulose) (HPC)): 100 % of control

Compound: c1ccc(-c2nnc(-c3ccccn3)o2)nc1
- T/C [15]: 102 % of control
- T/C [16]: 98 % of control
- T/C [4]: 107 % of control

Compound: CCCCC(=O)/C=C/Sc1n[nH]c(=O)[nH]c1=O
- T/C (endpoint: mean survival time, dose: 12.5 mg/kg/injection, schedule: Q01DX005 (ip), vehicle: distilled water + Tween-80): 104 % of control
- T/C (endpoint: mean survival time, dose: 25.0 mg/kg/injection, schedule: Q01DX005 (ip), vehicle: distilled water + Tween-80): 93 % of control
- T/C (endpoint: mean survival time, dose: 50.0 mg/kg/injection, schedule: Q01DX005 (ip), vehicle: distilled water + Tween-80): 90 % of control

Compound: O/N=C(/c1ccccc1)c1ccc(O)cc1
- T/C (endpoint: median survival time, dose: 25.0 mg/kg/injection, schedule: Q01DX001 (ip), vehicle: saline with Tween-80): 104 % of control
- T/C (endpoint: median survival time, dose: 50.0 mg/kg/injection, schedule: Q01DX001 (ip), vehicle: saline with Tween-80): 101 % of control
- T/C (endpoint: median survival time, dose: 100.0 mg/kg/injection, schedule: Q01DX001 (ip), vehicle: saline with Tween-80): 98 % of control
- T/C (endpoint: median survival time, dose: 200.0 mg/kg/injection, schedule: Q01DX001 (ip), vehicle: saline with Tween-80): 104 % of control
- T/C (endpoint: median survival time, dose: 400.0 mg/kg/injection, schedule: Q01DX001 (ip), vehicle: saline with Tween-80): 101 % of control

Compound: Nc1nc(Nc2ccc(C(=O)O)cc2)n[nH]1
- T/C (endpoint: mean survival time, dose: 100.0 mg/kg/injection, schedule: Q01DX001 (ip), vehicle: saline sonified): 96 % of control
- T/C (endpoint: mean survival time, dose: 100.0 mg/kg/injection, schedule: Q01DX009 (ip), vehicle: saline sonified): 105 % of control
- T/C (endpoint: mean survival time, dose: 200.0 mg/kg/injection, schedule: Q01DX001 (ip), vehicle: saline sonified): 104 % of control
- T/C (endpoint: mean survival time, dose: 200.0 mg/kg/injection, schedule: Q01DX009 (ip), vehicle: saline sonified): 96 % of control
- T/C (endpoint: mean survival time, dose: 400.0 mg/kg/injection, schedule: Q01DX001 (ip), vehicle: saline sonified): 96 % of control
- T/C (endpoint: mean survival time, dose: 400.0 mg/kg/injection, schedule: Q01DX009 (ip), vehicle: saline sonified): 88 % of control

Compound: CN(C)c1ccc(C(Cc2ccc(Nc3ccccc3)c3ccccc23)=C2C=CC(=[N+](C)C)C=C2)cc1
- T/C (endpoint: mean survival time, dose: 3.13 mg/kg/injection, schedule: Q01DX001 (ip), vehicle: saline): 96 % of control
- T/C (endpoint: mean survival time, dose: 6.25 mg/kg/injection, schedule: Q01DX001 (ip), vehicle: saline): 93 % of control
- T/C (endpoint: mean survival time, dose: 12.5 mg/kg/injection, schedule: Q01DX001 (ip), vehicle: saline): 118 % of control and 93 % of control
- T/C (endpoint: mean survival time, dose: 25.0 mg/kg/injection, schedule: Q01DX001 (ip), vehicle: saline): 106 % of control

Compound: O=[N+]([O-])c1ccc2cn[nH]c2c1
- T/C (endpoint: mean survival time, dose: 100.0 mg/kg/injection, schedule: Q01DX001 (ip), vehicle: alcohol): 92 % of control
- T/C (endpoint: mean survival time, dose: 200.0 mg/kg/injection, schedule: Q01DX001 (ip), vehicle: alcohol): 98 % of control
- T/C (endpoint: mean survival time, dose: 400.0 mg/kg/injection, schedule: Q01DX001 (ip), vehicle: alcohol): 93 % of control

Compound: CCCCCCCCCCCCCC[n+]1ccc(C(N)=O)cc1
- T/C (endpoint: mean survival time, dose: 12.5 mg/kg/injection, schedule: Q04DX003 (ip), vehicle: saline with Tween-80): 107 % of control
- T/C (endpoint: mean survival time, dose: 25.0 mg/kg/injection, schedule: Q04DX003 (ip), vehicle: saline with Tween-80): 107 % of control

Compound: OC1CC2CC1C1C=CCC21 (stereo not drawn)
- T/C [14]: 95 % of control
- T/C [3]: 98 % of control
- T/C [5]: 93 % of control
- T/C [7]: 93 % of control
- T/C [9]: 93 % of control

Compound: CSCC(NC(=O)OCc1ccccc1)C(=O)O (stereo not drawn)
- T/C [5]: 101 % of control
- T/C [9]: 101 % of control

Compound: CCCN(CCC)c1c([N+](=O)[O-])cc(C(N)=O)cc1[N+](=O)[O-]
- T/C [12]: 96 % of control
- T/C [13]: 96 % of control
- T/C [14]: 90 % of control

Compound: CC1=C(C)C(COS(=O)(=O)c2ccc(C)cc2)C1COS(=O)(=O)c1ccc(C)cc1 (stereo not drawn)
- T/C (endpoint: mean survival time, dose: 100.0 mg/kg/injection, schedule: Q04DX003 (ip), vehicle: saline): 97 % of control
- T/C (endpoint: mean survival time, dose: 200.0 mg/kg/injection, schedule: Q04DX003 (ip), vehicle: saline): 97 % of control
- T/C (endpoint: mean survival time, dose: 400.0 mg/kg/injection, schedule: Q04DX003 (ip), vehicle: saline): 95 % of control
